Patent US9533957B2, “Tetrazines and method of synthezising the same” (The Regents of the University of California, priority 2012, dated 2017)
{cycp1} = methylcyclopropene carbamate coupled through the 3' amine; {3AmMO} = amino modifier (IDT nomenclature)

How the values were obtained:
[1] = test system: LS174T human colon cancer cells; assay: Simultaneous imaging of two metabolically incorporated unnatural sugars and cross reactivity; format: cell-based
Protocol: (§1) The SKBR3 and LS174T cells were incubated for two days in the presence of 100 μM of Ac4ManNCyc and/or 50 μM Ac4GlcNAz on a Lab-Tek chamber slide maintained in cDMEM medium. Treatment of cells with tunicamycin was done by preparing a 0.2 mg/mL stock in DMSO, which was diluted to a final working concentration of 1.2 μM tunicamycin in cDMEM (0.5% DMSO). Cells were washed 3× with phosphate-buffered saline (PBS) and incubated for 1 hour at 37° C. in 10 μM tetrazine-BODIPY TMR-X, 10 μM tetrazine-Alexa flour 488 and/or 15 μM dibenzocyclooctyne (DIBO)-Alexa Fluor 647 in cDMEM. The media was aspirated, and cells were washed twice with PBS before imaging. All photos were collected with an Olympus FV1000 confocal microscope using ImageJ 1.45j software package.
Finally, we tested whether or not we could simultaneously image two different metabolically incorporated unnatural sugar derivatives, Ac4ManNCyc and tetraacetylated N-azidoacetylgalactosamine (Ac4GalNAz). […] Recent experimental work has shown that alkenes and azides can be mutually orthogonal to each other, even when using highly strained trans-cyclooctenes. Additionally, the Houk group has calculated that methyl-cyclopropene handles, such as those we have previously developed, should be mutually orthogonal to azide cyclooctyne reactions. We incubated LS174T human colon cancer cells with 100 μM Ac4ManNCyc and Ac4GalNAz for 2 days. After incubation, we sequentially stained the cells with 10 μM tetrazine-Alexa Fluor 488 and 15 μM dibenzocyclooctyne (DIBO) 647. […] Similar results were obtained with the SKBR3 cell line. […] The ability to simultaneously label two different metabolically incorporated molecules using live-cell compatible inverse-Diels-Alder and Huisgen reactions expands the capabilities of bioorthogonal metabolic imaging.

SKBR3 cells [2] = assay: Live-cell microscopy of metabolically incorporated cyclopropene sugar; format: cell-based, human; conditions: SKBR3; 100 μM for 48 hours, then 10 μM tetrazine-Alexa Fluor 488 for 1 hour
Protocol: (§2) SKBR3 and LS 174T cells were grown in cDMEM media supplemented with 10% fetal bovine serum, 1% L-glutamine, 1% penicillin/streptomycin. Cells were incubated in 5.0% carbon dioxide, 95% humidity at 37° C. Generally, cells were grown in T-75 tissue culture flasks, seeded at densities between 500,000 and 750,000 cells per flask (cells were quantified with the Life Technologies Countess automated cell counter). The cells were trypsinized with TrypLE Express and resuspended in cDMEM. Cells were allowed to incubate for two days before supplementing with Ac4ManNCyc (N-cyclopropeneacetylmannosamine) or Ac4GlcNAz (N-azidoacetylglucosamine). The cells were then analyzed via confocal microscopy and flow cytometry as described below.
as §1
(§3) In order to determine if Ac4ManNCyc was incorporated effectively by cells, we incubated adherent human breast cancer (SKBR3) and colon cancer (LS174T) cell lines with 100 μM Ac4ManNCyc for 48 hours in cell media and serum. After incubation, cells were thoroughly washed and then reacted for 1 hour with 10 μM of fluorogenic Alexa Fluor 488 tetrazine. After a second wash, cells were imaged by confocal microscopy (Olympus FV1000). […] In order to ensure that the staining was due to glycan uptake of the probe, we also performed controls by exposing cells to 100 μM Ac4ManNCyc and inhibiting uptake by using glycosylation inhibitors (ie. tunicamycin and αBnGalNAc) or 20 mM of ManNAc as a competitive substrate.^[14] […] These experiments provide evidence that the staining patterns are reporting on glycosylation and uptake of the unnatural cyclopropene mannosamine. We also performed additional studies using flow cytometry to quantitate the relative uptake of sugars that corroborated the imaging data.

LS174T cells = assay: as above; format: cell-based, human; conditions: 100 μM for 48 hours, then 10 μM tetrazine-Alexa Fluor 488 for 1 hour
Protocol: as §2, §1, §3

[3] = Fluorescence turn-on spectroscopy of tetrazine-Alexa Fluor 488 with Ac4ManNCyc; format: physicochemical
Protocol: Mannosamine-cyclopropene (Ac4ManNCyc) and tetrazine-Alexa-Fluor 488 stocks were prepared at 1 and 0.1 mM, respectively, in phosphate-buffered saline (PBS) pH 7.4. Fluorescence turn-on was measured using a Perkin Elmer LD-45 spectrometer, with the excitation wavelength set to 480/5 nm, and emission scanned over 490-620 nm (5-nm slit width) at a rate of 50 nm/min. Reaction conditions were 50 μM tetrazine-Alexa-Fluor 488 and 100 μM Ac4ManNCyc in PBS pH 7.4 buffer at room temperature.

SKBR3 cells [4] = assay: Analysis of cell surface cyclopropenes by flow cytometry; format: cell-based, human; conditions: followed by tetrazine imaging probe
Protocol: After the incubating the adherent SKBR3 cells in 100 μM of Ac4ManNCyc (1.2 μM tunicamycin and/or 1 mM aBnGalNAc was used in experiments requiring glycosylation inhibitors) they were washed twice in PBS and then incubated in 10 μM of tetrazine-Alexa flour 488 for 1 hour at 37° C. Control cells were not exposed to Ac4ManNCyc and incubated in 10 μM of tetrazine-Alexa flour 488 for 1 hour at 37° C. Cells were then resuspended in 1-2 ml of cDMEM (5.0×10^5 to 1.0×10^6 per ml) using a rubber policeman. The cells were passed through a 25 gauge syringe to ameliorate excessive clumping, and subjected to analysis by flow cytometry using a 200 mW 488 nm blue solid state laser on the Partec Space Flow Cytometer (Partec).

[5] = Reaction rate determination of cyclopropenes with tetrazine 3; format: physicochemical
Protocol: A tetrazine 3 stock solution was prepared in DMSO and used to prepare tetrazine solutions at 0.6 mM final concentration in 12% v/v DMSO in ddH2O. Reactions were initiated with excess cyclopropene at final concentrations of 6.0, 8.0, and 10.0 mM. The disappearance of the tetrazine absorption peak at 520 nm was tracked over the reaction timeframe by measuring the absorption spectra using a NanoDrop 2000c spectrophotometer (Thermo Scientific). Samples were placed in a quartz cuvette with 10-mm pathlength and stirred at the maximum speed setting of the instrument. The temperature was uncontrolled by the instrument for room temperature (20° C.) measurements, and set and equilibrated at 37° C. for the higher temperature experiments.
Absorption spectra were measured manually over time. Absorption peak signal was taken as the average of measurements at 519-521 nm. Baseline signal was determined as the sloping line connecting the measured background levels preceding and following the tetrazine peak (410-430 nm and 590-610 nm, respectively). Final peak intensity value was taken as the signal above the baseline. Reaction rates were obtained by fitting the exponential decays of tetrazine peak absorption intensity as a pseudo first order reaction. Nonlinear data fits were performed with GraphPad Prism. Tetrazine reactions with cyclopropene carbamate 5 were carried out at 20 and 37° C. (data points and corresponding fitted curves at 20° C. in FIG. 51, 37° C. in FIG. 2c). Tetrazine reactions with cyclopropene carboxamide 2 were done at 37° C. ([…]. A representative comparison fit is shown for cyclopropenes 5 and 2 at 8.0 mM concentration reacting at 37° C. with 0.6 mM tetrazine.

[6] = Storage stability of cyclopropene derivatives; format: physicochemical; conditions: stored at −20° C.
[7] = Stability of cyclopropene 5 by 1H NMR; format: physicochemical; conditions: 37° C., over 24 hours
Protocol: Cyclopropene 5 was kept at 37° C. in D2O: DMSO-d6=10:1 and 1H NMR was taken over a period of 24 h at the following time points: 0.0, 0.5, 1.0, 1.5, 3.0, 6.0 and 24.0 h. By comparing the peak abundance of the cyclopropene alkene proton (6.21 ppm) at different time points, we determined the stability of cyclopropene 5 (Figure S2).

27mer DNA template [8] = assay: Template-driven ligation of tetrazine and cyclopropene oligonucleotide probes (fluorescence); format: biochemical
Protocol: (§4) Tetrazine and cyclopropene-modified oligonucleotide probes were ligated in the presence of a DNA or RNA template at a 1:1:1 ratio. Reactions were done in varying solution and temperature conditions, as indicated. Main hybridization buffer was 50 mM MOPS at pH 7.5, 250 mM NaCl. Ligation reactions with a mismatched DNA template were performed in 5 mM MgCl2 in standard 1× Tris-borate buffer (purchased as 10× UltraPure TBE from Invitrogen: 1.0 M Tris pH 8.4, 0.9 M Boric acid, 10 mM EDTA).
(§5) Ligation reactions were done in standard 96 fluorescence well plates using SpectraMax GeminiXS (Molecular Devices). Temperature was set by the instrument. Where indicated by standard deviations, experiments were performed multiple times. In order to avoid any secondary structure artifacts, DNA or RNA template with added tetrazine probe was first heated to 90° C. and crash-cooled on ice for 2 min right before the experiment. Each well was filled with a total of 100 μL reaction solution, and reactions were timed from the addition of the cyclopropene probe as the last step before starting the measurements. Wells were scanned every 20-60 s depending on the speed of the reactions by using 485 nm excitation and 538 nm emission with the cutoff set at 495 nm. Control reactions without template were done in parallel each time. Buffer-only well intensities were subtracted from the measured raw data before analysis. Data was analyzed using GraphPad Prism 6.0 by applying a nonlinear fit of a one-phase association to each curve where fluorescein signal during reaction was measured.

27mer DNA template [9] = assay: Melting temperatures of DNA template with probes and ligation products; format: physicochemical; conditions: hybridization target against 27mer template; 250 mM NaCl in buffer; 1 μM each oligonucleotide
Protocol: Melting temperature of probes and ligation products in hybridization buffer (50 mM MOPS pH 7.5, 250 mM NaCl) were measured using a Beckman-Coulter DU 640 spectrophotometer equipped with a high performance temperature controller and micro auto six-cell holder. Samples at 1 μM concentration of each oligonucleotide were heated to 90° C. and slowly cooled to RT over 1-1.5 h before the measurements. Melting temperature values were obtained by cooling samples from 90° C. to 20° C. at the rate of 1° C./min and measuring at 1° C. increments with each read averaged over 1 s.

27mer RNA template = assay: Ligation of oligonucleotide probes with an RNA template; format: biochemical; conditions: ligating 13merF15′tet and 13mer3′cycp1
Protocol: as §4
as §5, with “Wells were scanned every 20-60 s depending on the speed of the reactions by using 485 nm excitation and 538 nm emission with the cutoff set at 495 nm. Control reactions without template were done in parallel each time.” left out

[10] = test system: singly-mismatched 27mer template; assay: Single nucleotide mismatch discrimination in probe ligation; format: biochemical; conditions: 5 mM MgCl2 in Tris-borate buffer at 37° C.; reaction with 13merF15′tet
Protocol: as §4
A single nucleotide mismatch effect was determined on reaction completion in discriminating conditions from FIG. 2C and is depicted in Figure S8. TBE 1× buffer (pH 8.4, Invitrogen) with 5 mM MgCl2 solution at 37° C. was used for incubation of 13mer5′tet with 13mer3′cycp1 in the presence of a fully matched template, or a sample containing a fully matched template and a single mismatched template, and a sample with only a singly-mismatched template. All DNA concentrations were kept at 1 μM. Fluorescence measurements were taken using a Perkin Elmer LD-45 spectrophotometer, as described above, with the samples in the quartz cuvettes warmed with attached circulating water bath. Initial timepoints were taken of prewarmed samples prior to template addition, and subtracted from the final intensity values (Figure S8).

Substance: 1,3,4,6-Tetra-O-acety-N-cyclopropene tag-D-mannosamine [Ac4ManNCyc]
- cell surface staining after co-incubation of both sugars ([1]; 100 μM, 2 days, stained with 10 μM tetrazine-Alexa Fluor 488 and 15 μM DIBO 647): cell surface staining in both the fluorescent channels
- cross reactivity: surface staining with DIBO 647 ([1]; cells incubated with only this sugar): minimal surface staining
- cell surface staining by confocal microscopy (SKBR3 cells [2]): bright surface staining
- cell surface staining by confocal microscopy (LS174T cells): bright surface staining
- fluorogenic response of quenched tetrazine probe [3]: elicits fluorogenic responses
- fluorescence intensity by flow cytometry compared to controls (SKBR3 cells [4]): increased fluorescence intensity

Substance: 2-methyl-cyclopropene carbamate [cyclopropene 5]
- rate constant ([5]; 20° C., 12% DMSO by volume): 7 ± 1 M⁻¹ s⁻¹
- improvement of rate constant compared to cyclopropene carboxamide 2 ([5]; 37° C.): approximately two orders of magnitude
- second order rate constant ([5]; 37° C., water/DMSO (12% DMSO by volume)): 13 ± 2 M⁻¹ s⁻¹
- storage stability at −20° C. [6]: without degradation
- degradation in aqueous solutions [7]: no significant degradation

Substance: 13mer3′cycp1: 5′-ATT CAA CAC TAC C/3AmMO/-cyclopropene-3′ (SEQ ID NO:5), methyl-cyclopropene carbamate cycp1 (DNA ATTCAACACTACC; DNA, 3' {3AmMO}-{cycp1}, backbone not given here)
- reaction yield by LC/MS (27mer DNA template [8]; disappearance of 13merF15′tet and appearance of product): approximately 92%
- effective molarity of the intramolecular reaction (27mer DNA template [8]; estimated assuming the reaction is limited by ligation): 53 mM
- observed first order rate constant of DNA-templated reaction (27mer DNA template [8]; reaction with 13merF15′tet in the presence of DNA template): 0.019 ± 0.001 s⁻¹
- time at which the fluorescence signal plateaus (27mer DNA template [8]; reaction with 13merF15′tet, 1 μM 27mer template): about 200 s
- Melting T (27mer DNA template [9]): 50.4 °C
- ligation with RNA template compared with DNA template (27mer RNA template): equally effective
- effect of single mismatch (T to G) in template on reaction rate [10]: only a moderate difference
